This experiment relates to TC-1 cell line (mouse lung cancer cell line). Format: cell-based. The note with it: TC-1 cells, released from PCL membrane. As to the method:
In one embodiment, the drug release rates of different kinds of the biodegradable polymeric membrane were tested. There were 6 experimental groups and 1 control group. Control group: TCPS (Tissue Culture Polystyrene); experimental group 1: the non-porous PCL membrane without any drugs; experimental group 2: the non-porous PCL membrane with 1 μg/ml of Cisplatin (0.3 μg/well); experimental group 3: the non-porous PCL membrane with 10 μg/ml of Cisplatin (3 μg/well); experimental group 4: the porous PCL membrane without any drugs; experimental group 5: the porous PCL membrane with 1 μg/ml of Cisplatin (0.3 μg/well); and experimental group 6: the porous PCL membrane with 10 μg/ml of Cisplatin (3 μg/well). The pores of the above porous PCL membrane were created by 0.01 g/mL of NaCl.
In this embodiment, different kinds of membranes with drugs were cultured in TC-1 cell line (mouse lung cancer cell line) for three days, and the cell growth and cytotoxicity were measured by using AlamarBlue™. The absorbance was at 570 nm and 600 nm as the background.

On to `N.N.[Cl][Pt][Cl]` [cisplatin], for which the killing cancer cells entry was “capability of killing cancer cells”.
